In PMC7926793, “Synthesis and Biological Evaluation of 1-(Diarylmethyl)-1H-1,2,4-triazoles and 1-(Diarylmethyl)-1H-imidazoles as a Novel Class of Anti-Mitotic Agent for Activity in Breast Cancer” (Pharmaceuticals, 2021):
Several values for one entry are separate records, joined by “and”; a condition that tells them apart may be missing. Equal entries are not always repeated.

Tests used:
Format in all cases: cell-based, human
MDA-MB-231/ATCC = assay: NCI 60 cell line screen (Breast Cancer); conditions: single dose 10 µM
SK-MEL-28 = assay: NCI 60 cell line screen (Melanoma); conditions: SK-MEL-28, single dose 10 µM
DU-145 = assay: NCI 60 cell line screen (Prostate cancer); conditions: DU-145, single dose 10 µM
MCF-7 = assay: NCI 60 cell line screen (Breast Cancer); conditions: MCF-7, single dose 10 µM
ACHN = assay: NCI 60 cell line screen (Renal Cancer); conditions: single dose 10 µM
MDA-MB-468 = assay: NCI 60 cell line screen (Breast Cancer); conditions: MDA-MB-468, single dose 10 µM
EKVX = assay: NCI 60 cell line screen (Non-Small Cell Lung Cancer); conditions: single dose 10 µM
SNB-19 = assay: NCI 60 cell line screen (CNS Cancer); conditions: SNB-19, single dose 10 µM
CAKI-1 = assay: NCI 60 cell line screen (Renal Cancer); conditions: CAKI-1, single dose 10 µM
NCI-H552 = assay: NCI 60 cell line screen (Non-Small Cell Lung Cancer); conditions: NCI-H552, single dose 10 µM
A498 = assay: NCI 60 cell line screen (Renal Cancer); conditions: A498, single dose 10 µM
COLO 205 = assay: NCI 60 cell line screen (Colon Cancer); conditions: COLO 205, single dose 10 µM
TK-10 = assay: NCI 60 cell line screen (Renal Cancer); conditions: TK-10, single dose 10 µM
OVCAR-4 = assay: NCI 60 cell line screen (Ovarian Cancer); conditions: OVCAR-4, single dose 10 µM
786-0 = assay: NCI 60 cell line screen (Renal Cancer); conditions: 786-0, single dose 10 µM
NCI/ADR-RES = assay: NCI 60 cell line screen (Ovarian Cancer); conditions: single dose 10 µM
NCI-H226 = assay: NCI 60 cell line screen (Non-Small Cell Lung Cancer); conditions: NCI-H226, single dose 10 µM
MALME-3M = assay: NCI 60 cell line screen (Melanoma); conditions: single dose 10 µM
NCI-H23 = assay: NCI 60 cell line screen (Non-Small Cell Lung Cancer); conditions: NCI-H23, single dose 10 µM
SK-MEL-5 = assay: NCI 60 cell line screen (Melanoma); conditions: SK-MEL-5, single dose 10 µM
UACC-257 = assay: NCI 60 cell line screen (Melanoma); conditions: UACC-257, single dose 10 µM
HL-60 (TB) = assay: NCI 60 cell line screen (Leukemia); conditions: single dose 10 µM
NCI-H332M = assay: NCI 60 cell line screen (Non-Small Cell Lung Cancer); conditions: single dose 10 µM
OVCAR-5 = assay: NCI 60 cell line screen (Ovarian Cancer); conditions: OVCAR-5, single dose 10 µM
SK-MEL-2 = assay: NCI 60 cell line screen (Melanoma); conditions: SK-MEL-2, single dose 10 µM

Compound	Growth percentage (MDA-MB-231/ATCC) [%]	Growth percentage (SK-MEL-28) [%]	Growth percentage (DU-145) [%]	Growth percentage (MCF-7) [%]	Growth percentage (ACHN) [%]	Growth percentage (MDA-MB-468)	Growth percentage (EKVX) [%]	Growth percentage (SNB-19) [%]	Growth percentage (CAKI-1) [%]	Growth percentage (NCI-H552) [%]	Growth percentage (A498) [%]	Growth percentage (COLO 205) [%]	Growth percentage (TK-10) [%]	Growth percentage (OVCAR-4) [%]	Growth percentage (786-0) [%]	Growth percentage (NCI/ADR-RES) [%]	Growth percentage (NCI-H226) [%]	Growth percentage (MALME-3M) [%]	Growth percentage (NCI-H23) [%]	Growth percentage (SK-MEL-5) [%]	also measured
COc1ccc(C(c2cc(OC)c(OC)c(OC)c2)N2CCN(Cc3ccccc3)CC2)cc1 (stereo not drawn) [27d]	71.05	78.33	102.00	47.67	92.77	52.99%	82.69	69.95	66.73	52.38	51.90	61.78	84.76	97.02	82.57	61.59	85.40	74.83	88.53	52.63	Growth percentage (UACC-257): 84.23%; Growth percentage (HL-60 (TB)): 22.98%; Growth percentage (NCI-H332M): 65.07%; Growth percentage (OVCAR-5): 84.69%; Growth percentage (SK-MEL-2): 27.38%
COc1ccc(C(c2cc(OC)c(OC)c(OC)c2)N2CCCCC2)cc1 (stereo not drawn) [26b, 1-((4-Methoxyphenyl)(3,4,5-Trimethoxyphenyl)Methyl)Piperidine]	53.09	47.22	64.18	23.57	50.89	9.32% and 9.3%	59.13	30.43	29.22	19.85	7.32	16.14	57.56	69.25	38.84	23.95	55.46	55.25	59.28	29.49	Growth percentage (UACC-257): 54.88%; Growth percentage (HL-60 (TB)): 4.36%; Growth percentage (NCI-H332M): 47.90%; Growth percentage (OVCAR-5): 69.57%; Growth percentage (SK-MEL-2): 22.02%
COc1ccc(C(c2cc(OC)c(OC)c(OC)c2)N2CCCC2)cc1 (stereo not drawn) [25g]	80.82	80.08	103.12	64.09	103.18	54.75%	87.78	90.50	77.46	58.47	31.23	71.23	88.29	101.25	93.40	69.39	87.61	85.32	85.27	65.20	Growth percentage (UACC-257): 74.57%; Growth percentage (HL-60 (TB)): 35.51%; Growth percentage (NCI-H332M): 87.51%; Growth percentage (OVCAR-5): 92.64%; Growth percentage (SK-MEL-2): 55.67%
